Results from US6417182B1, “Pharmaceutical compositions comprising metal complexes” (AnorMED Inc., priority 1993, dated 2002).

Tests used:
[1] = system: murine (RAW264) macrophage cell lines; assay: in vitro cell culture test: available nitric oxide (nitrite+nitrate, Griess) in activated macrophages; format: cell-based; settings: up to 100 μM
Description: In the in vitro cell culture tests, murine (RAW264) macrophage cell lines, which can be induced to produce nitric oxide, were seeded, 10^6 cells/well, onto 24 well culture plates of 2 ml volume per well, in Eagles modified minimal essential medium (MEM) plus 10% foetal bovine serum without phenol red.
The cells were activated to produce nitric oxide, with 10 μg/ml lipopolysaccharide and 100 units/ml interferon γ for 18 hours. Concurrently, test compounds made up in MEM were added at non-cytotoxic concentrations. […]
Background nitric oxide was assessed by measurement of nitrate and nitrite in cells which were not activated. […]
Nitric oxide was determined by measurement of nitrate and nitrite in the cell supernatant These anions are the stable end-products of reactions of NO in solution. […] Nitrite was determined using the Griess reaction in which nitrite reacts with 1% sulphanilamide in 5% H3PO4/0.1% naphthylethylenediamine dihydrochloride to form a chromophore absorbing at 540 nm Nitrate was determined by reducing nitrate to nitrite with a bacterial nitrate reductase from Pseudomonas oleovorans and then measuring nitrite with the Griess reaction. […] The effect of test compounds on available nitric oxide (measured as nitrite+nitrate) was determined. […]

rat tail artery = assay: ex vivo rat tail artery perfusion test (vasoconstriction by removal of endogenous NO); design: species or system Wistar rats; settings: for vasoconstriction on application of test compound (in words): 10 μM and 100 μM (Example 26 also 1000 μM); for reversibility of vasoconstriction: washout with Krebs solution
Text: In the ex vivo tests, segments of rat tail artery (0.8-1.5 cm) were dissected free from normotensive adult Wistar rats. The arteries were internally perfused with Krebs solution (mM: NaCl 118, KCl 4.7, NaHCO3, 25, NaH2PO4 1.15, CaCl2 2.5, MgCl2 1.1, glucose 5.6 and gassed with 95% O2/5% CO2 to maintain a pH of 7.4) in a constant flow perfusion apparatus. A differential pressure transducer located upstream of the vessel detected changes in back pressure. The rat tail artery preparation was pre-contracted with 6.5 μM phenylephrine to give a physiologically normal pressure of 100-120 mm Hg. The pre-contracted vessels were then perfused with the test compound. The arteries were perfused with Krebs solution between applications of test compound to wash out the test compound.
Pressure changes in the system served to indicate artery vasoconstriction. The vasoconstriction is a direct result of the removal of endogenous nitric oxide (edrf) from the endothelial cells of the rat tail artery.

[2] = in vitro NO uptake test (manometric pressure decrease; IR spectrum of freeze-dried product); settings: aqueous solution under argon, 20-24° C., NO gas in headspace, pressure recorded over one hour
Description: The resulting solution was placed in a three-necked pear-shaped flask and stirred by a magnetic stirrer at constant speed of 1000 rpm, at a constant temperature in the range 20° C.-24° C. A manometer was attached to the flask, and purified, dried nitric oxide gas (known volume in the range 3-5 cm^3) was introduced via a septum, using a gas syringe, at atmospheric pressure into the headspace above the reaction solution. The pressure within the flask was recorded periodically over a period of one hour.
A control experiment was carried out according to the above but without any complex present.
On completion of each in vitro test, the reaction solution was freeze-dried. An infrared spectrum of the freeze-dried product provided information on metal-NO bond formation.

Molecule | dose dependence of reduction of available nitric oxide [1] | vasoconstriction on application of test compound (in words) (rat tail artery) | reversibility of vasoconstriction (rat tail artery) | pressure decrease indicating binding of NO to the metal compound [2] | % Vasoconstriction (rat tail artery; 10 μM, artery pre-contracted with 6.5 μM phenylephrine)
O.O.O=C([O-])CN(CCN(CC(=O)[O-])CC(=O)O)CC(=O)[O-].[Cl-].[K+].[Ru+3] [Example 1, K[Ru(Hedta)Cl]2H2O] | reduced in a dose-dependent fashion |  |  |  | 
CC(=O)C=C(C)[O-].O=C([O-])CN(CCN(CC(=O)[O-])CC(=O)O)CC(=O)O.[Ru+3] [Example 2, [Ru(H2edta)(acac)]] |  | dose-dependent vasoconstriction | reversible by washout with Krebs solution |  | 
O.O=C([O-])CN(CCO)CCN(CC(=O)[O-])CC(=O)[O-].[Cl-].[K+].[Ru+3] [Example 3, K[Ru(hedtra)Cl]H2O] |  | dose-dependent vasoconstriction | reversible by washout with Krebs solution |  | 
O.O=C([O-])CN(CC(=O)[O-])CC(=O)O.O=C([O-])CN(CC(=O)[O-])CC(=O)O.O=C([O-])CN(CC(=O)[O-])CC(=O)O.O=C([O-])CN(CC(=O)[O-])CC(=O)O.[K+].[K+].[Ru+3].[Ru+3] [Example 7, K[Ru(Hnta)2]½H2O] |  |  |  | pressure decrease indicated binding of NO | 
O.O=C([O-])CN(CCN(CC(=O)[O-])CC(=O)O)CCN(CC(=O)[O-])CC(=O)O.[Cl-].[K+].[Ru+3] [Example 8, K[Ru(H2dtpa)Cl]H2O] |  |  |  | pressure decrease indicated binding of NO | 
CC(=O)[O-].CC(=O)[O-].CC(=O)[O-].CC(=O)[O-].[Cl-].[Ru+3].[Ru+3] [Example 14, [Ru2(OAc)4]Cl] |  | dose-dependent vasoconstriction | reversible by washout with Krebs solution |  | 
Cc1occc(=O)c1[O-].Cc1occc(=O)c1[O-].Cc1occc(=O)c1[O-].[Ru+3] [Example 26, [Ru(maltol)3]] |  | dose-dependent vasoconstriction | reversible by washout with Krebs solution |  | 
[Ru(NH3)5Cl]Cl2 [Example 15] |  | dose-dependent vasoconstriction | reversible by washout with Krebs solution |  | 16%
